Experimental data from patent US9073940B2, “Tricyclic pyrazol amine derivatives” (MERCK SERONO SA, priority 2009, dated 2015).
pIC50: −log10 of the molar value.

Test system: 4 PI3K isoforms (Human recombinant GST-PI3K)
Assay: PI3K scintillation proximity assay, best IC50 obtained with the four isoforms (alpha, beta, delta, gamma)
Assay type: biochemical
Conditions: best IC50 obtained with the four isoforms of PI3K; read-out: Best potency measured on the 4 PI3K isoforms

SMILES	pIC50
COCCNc1ccc2c(c1)-c1c(c(C(=O)N3CCOCC3)nn1-c1ccccc1)CS2(=O)=O [Example 156, N-(2-Methoxyethyl)-3-(morpholin-4-ylcarbonyl)-1-phenyl-1,4-dihydrothiochromeno[4,3-c]pyrazol-8-amine 5,5-dioxide]	6.04
O=C(c1nn(-c2ccccc2)c2c1CS(=O)(=O)c1cc(C(F)(F)F)ccc1-2)N1CCOCC1 [Example 158, 3-(Morpholin-4-ylcarbonyl)-1-phenyl-7-(trifluoromethyl)-1,4-dihydrothiochromeno[4,3-c]pyrazole 5,5-dioxide]	5.51
Cc1ccccc1-c1cccc(-n2nc(C(=O)N3CCOCC3)c3c2-c2ccccc2S(=O)(=O)C3)c1 [Example 160, 1-(2′-Methylbiphenyl-3-yl)-3-(morpholin-4-ylcarbonyl)-1,4-dihydrothiochromeno[4,3-c]pyrazole 5,5-dioxide]	5.97
Cc1ccccc1-c1ccc(-n2nc(C(=O)N3CCOCC3)c3c2-c2ccccc2S(=O)(=O)C3)cc1 [Example 161, 1-(2′-Methylbiphenyl-4-yl)-3-(morpholin-4-ylcarbonyl)-1,4-dihydrothiochromeno[4,3-c]pyrazole 5,5-dioxide]	5.19
CC1CN(C(=O)c2nn(-c3ccccc3)c3c2CS(=O)(=O)c2ccccc2-3)CCO1 (stereo not drawn) [Example 163, 3-[(2-Methylmorpholin-4-yl)carbonyl]-1-phenyl-1,4-dihydrothiochromeno[4,3-c]pyrazole 5,5-dioxide]	5.67
Nc1ccc2c(c1)S(=O)(=O)Cc1c(C(=O)N3CCOCC3)nn(-c3ccccc3)c1-2 [Example 165, 3-(Morpholin-4-ylcarbonyl)-1-phenyl-1,4-dihydrothiochromeno[4,3-c]pyrazol-7-amine 5,5-dioxide]	5.95
O=C(c1nn(-c2cccc(Nc3ccccc3)c2)c2c1CS(=O)(=O)c1ccccc1-2)N1CCOCC1 [Example 166, {3-[3-(Morpholin-4-ylcarbonyl)-5,5-dioxidothiochromeno[4,3-c]pyrazol-1 (4H)-yl]phenyl}phenylamine]	5.57
CN(C)c1cccc(-n2nc(C(=O)N3CCOCC3)c3c2-c2ccccc2S(=O)(=O)C3)c1 [Example 177, N,N-Dimethyl-3-[3-(morpholin-4-ylcarbonyl)-5,5-dioxidothiochromeno[4,3-c]pyrazol-1 (4H)-yl]aniline]	5.33
CS(=O)(=O)Nc1cccc(-n2nc(C(=O)N3CCOCC3)c3c2-c2ccccc2S(=O)(=O)C3)c1 [Example 180, N-{3-[3-(Morpholin-4-ylcarbonyl)-5,5-dioxidothiochromeno[4,3-c]pyrazol-1 (4H)-yl]phenyl)methanesulfonamide]	5.75
Cc1nnc(-c2cccc(-n3nc(C(=O)N4CCOCC4)c4c3-c3ccccc3S(=O)(=O)C4)c2)o1 [Example 182, 1-[3-(5-Methyl-1,3,4-oxadiazol-2-yl)phenyl]-3-(morpholin-4-ylcarbonyl)-1,4-dihydrothiochromeno[4,3-c]pyrazole 5,5-dioxide]	5.92
Cc1nnc(-c2cccc(-n3nc(C(=O)N4CCOCC4)c4c3-c3ccccc3S(=O)(=O)C4)c2)s1 [Example 183, 1-[3-(5-Methyl-1,3,4-thiadiazol-2-yl)phenyl]-3-(morpholin-4-ylcarbonyl)-1,4-dihydrothiochromeno[4,3-c]pyrazole 5,5-dioxide]	6.18
Cc1noc(C)c1-c1cccc(-n2nc(C(=O)N3CCOCC3)c3c2-c2ccccc2S(=O)(=O)C3)c1 [Example 184, 1-[3-(3,5-Dimethylisoxazol-4-yl)phenyl]-3-(morpholin-4-ylcarbonyl)-1,4-dihydrothiochromeno[4,3-c]pyrazole 5,5-dioxide]	6.52
Cn1cc(-c2cccc(-n3nc(C(=O)N4CCOCC4)c4c3-c3ccccc3S(=O)(=O)C4)c2)cn1 [Example 185, 1-[3-(1-Methyl-1H-pyrazol-4-yl)phenyl]-3-(morpholin-4-ylcarbonyl)-1,4-dihydrothiochromeno[4,3-c]pyrazole 5,5-dioxide]	6.74
Nc1ncc(-c2cccc(-n3nc(C(=O)N4CCOCC4)c4c3-c3ccccc3S(=O)(=O)C4)c2)cn1 [Example 186, 5-{3-[3-(Morpholin-4-ylcarbonyl)-5,5-dioxidothiochromeno[4,3-c]pyrazol-1 (4H)-yl]phenyl}pyrimidin-2-amine]	6.34
O=C(c1nn(-c2cccc(-c3ccncc3)c2)c2c1CS(=O)(=O)c1ccccc1-2)N1CCOCC1 [Example 187, 3-(Morpholin-4-ylcarbonyl)-1-(3-pyridin-4-ylphenyl)-1,4-dihydrothiochromeno[4,3-c]pyrazole 5,5-dioxide]	6.71
O=C(c1nn(-c2cccc(-c3cnn(CCN4CCOCC4)c3)c2)c2c1CS(=O)(=O)c1ccccc1-2)N1CCOCC1 [Example 188, 3-(Morpholin-4-ylcarbonyl)-1-{3-[1-(2-morpholin-4-ylethyl)-1H-pyrazol-4-yl]phenyl)-1,4-dihydrothiochromeno[4,3-c]pyrazole 5,5-dioxide]	6.47
O=C(c1nn(-c2cccc(-c3nccs3)c2)c2c1CS(=O)(=O)c1ccccc1-2)N1CCOCC1 [Example 189, 3-(Morpholin-4-ylcarbonyl)-1-[3-(1,3-thiazol-2-yl)phenyl]-1,4-dihydrothiochromeno[4,3-c]pyrazole 5,5-dioxide]	5.37
COCCN1CCC(Cn2nc(C(=O)N3CCOCC3)c3c2-c2ccccc2S(=O)(=O)C3)CC1 [Example 190, 1-{[1-(2-Methoxyethyl)piperidin-4-yl]methyl}-3-(morpholin-4-ylcarbonyl)-1,4-dihydrothiochromeno[4,3-c]pyrazole 5,5-dioxide]	6.17

Other lines, results leading:

pIC50	SMILES
5.40	O=C(c1nn(-c2ccc(N3CCOCC3)cc2)c2c1CS(=O)(=O)c1ccccc1-2)N1CCOCC1 [Example 155, 3-(Morpholin-4-ylcarbonyl)-1-(4-morpholin-4-ylphenyl)-1,4-dihydrothiochromeno[4,3-c]pyrazole 5,5-dioxide]
6.12	O=C(c1nn(-c2cccc(-c3ccccc3)c2)c2c1CS(=O)(=O)c1ccccc1-2)N1CCOCC1 [Example 157, 1-Biphenyl-3-yl-3-(morpholin-4-ylcarbonyl)-1,4-dihydrothiochromeno[4,3-c]pyrazole 5,5-dioxide]
6.61	COC1CCCN(C(=O)c2cccc(-n3nc(C(=O)N4CCOCC4)c4c3-c3ccccc3S(=O)(=O)C4)c2)C1 (stereo not drawn) [Example 159, 1-{3-[(3-Methoxypiperidin-1-yl)carbonyl]phenyl}-3-(morpholin-4-ylcarbonyl)-1,4-dihydrothiochromeno[4,3-c]pyrazole 5,5-dioxide]
5.79	O=C(c1nn(-c2ccccc2)c2c1CS(=O)(=O)c1ccc(CN3CCOCC3)cc1-2)N1CCOCC1 [Example 162, 3-(Morpholin-4-ylcarbonyl)-8-(morpholin-4-ylmethyl)-1-phenyl-1,4-dihydrothiochromeno[4,3-c]pyrazole 5,5-dioxide]
6.61	O=C(c1nn(-c2ccc(CN3CCC(F)CC3)cc2)c2c1CS(=O)(=O)c1ccccc1-2)N1CCOCC1 [Example 167, 1-{4-[(4-Fluoropiperidin-1-yl)methyl]phenyl}-3-(morpholin-4-ylcarbonyl)-1,4-dihydrothiochromeno[4,3-c]pyrazole 5,5-dioxide]
6.96	O=C(c1nn(-c2ccc(CN3CCCCC3)cc2)c2c1CS(=O)(=O)c1ccccc1-2)N1CCOCC1 [Example 169, 3-(Morpholin-4-ylcarbonyl)-1-[4-(piperidin-1-ylmethyl)phenyl]-1,4-dihydrothiochromeno[4,3-c]pyrazole 5,5-dioxide]
6.41	O=C(c1nn(C2CCC(F)(F)CC2)c2c1CS(=O)(=O)c1ccccc1-2)N1CCOCC1 [Example 170, 1-(4,4-Difluorocyclohexyl)-3-(morpholin-4-ylcarbonyl)-1,4-dihydrothiochromeno[4,3-c]pyrazole 5,5-dioxide]
6.30	CC1(C)CCCC(n2nc(C(=O)N3CCOCC3)c3c2-c2ccccc2S(=O)(=O)C3)C1 (stereo not drawn) [Example 171, 1-(3,3-Dimethylcyclohexyl)-3-(morpholin-4-ylcarbonyl)-1,4-dihydrothiochromeno[4,3-c]pyrazole 5,5-dioxide]
6.85	COCCCN1CCCC(n2nc(C(=O)N3CCOCC3)c3c2-c2ccccc2S(=O)(=O)C3)C1 (stereo not drawn) [Example 172, 1-[1-(3-Methoxypropyl)piperidin-3-yl]-3-(morpholin-4-ylcarbonyl)-1,4-dihydrothiochromeno[4,3-c]pyrazole 5,5-dioxide]
6.86	CC(C)CCN1CCCC(n2nc(C(=O)N3CCOCC3)c3c2-c2ccccc2S(=O)(=O)C3)C1 (stereo not drawn) [Example 173, 1-[1-(3-Methylbutyl)piperidin-3-yl]-3-(morpholin-4-ylcarbonyl)-1,4-dihydrothiochromeno[4,3-c]pyrazole 5,5-dioxide]
6.27	O=C(c1nn(C2CCCN(Cc3ccccc3)C2)c2c1CS(=O)(=O)c1ccccc1-2)N1CCOCC1 (stereo not drawn) [Example 174, 1-(1-Benzylpiperidin-3-yl)-3-(morpholin-4-ylcarbonyl)-1,4-dihydrothiochromeno[4,3-c]pyrazole 5,5-dioxide]
6.91	O=C(c1nn(C2CCCN(CCN3CCOCC3)C2)c2c1CS(=O)(=O)c1ccccc1-2)N1CCOCC1 (stereo not drawn) [Example 175, 3-(Morpholin-4-ylcarbonyl)-1-[1-(2-morpholin-4-ylethyl)piperidin-3-yl]-1,4-dihydrothiochromeno[4,3-c]pyrazole 5,5-dioxide]
6.40	O=C(c1nn(-c2cccc(CN3CCCCC3)c2)c2c1CS(=O)(=O)c1ccccc1-2)N1CCOCC1 [Example 178, 3-(Morpholin-4-ylcarbonyl)-1-[3-(piperidin-1-ylmethyl)phenyl]-1,4-dihydrothiochromeno[4,3-c]pyrazole 5,5-dioxide]
5.95	CN(C)Cc1cccc(-n2nc(C(=O)N3CCOCC3)c3c2-c2ccccc2S(=O)(=O)C3)c1 [Example 179, N,N-Dimethyl-1-{3-[3-(morpholin-4-ylcarbonyl)-5,5-dioxidothiochromeno[4,3-c]pyrazol-1 (4H)-yl]phenyl}methanamine]
5.31	O=C(c1nn(-c2cccc(N3CCCC3)c2)c2c1CS(=O)(=O)c1ccccc1-2)N1CCOCC1 [Example 181, 3-(Morpholin-4-ylcarbonyl)-1-(3-pyrrolidin-1-ylphenyl)-1,4-dihydrothiochromeno[4,3-c]pyrazole 5,5-dioxide]
